Results published in US20250154135A1, “M-CHOLINE RECEPTOR AGONIST COMPOUND, PREPARATION METHOD THEREFOR AND USE THEREOF” (NANJING GRITPHARMA CO., LTD., priority 2022, published 2025).

What was measured:
rabbit pupil = test: Miosis effect of 0.915% compound solutions in rabbits (Test Example 4); assay type: in vivo; settings: at half of the concentration of the pilocarpine hydrochloride
Procedure: Each rabbit in each group was subjected to single eye drop administration in the left eye, with an administration volume of 100 μL. The pupil and iris diameters of the left eye of the rabbits were measured at time points of −0.5 h (i.e., half an hour before administration), 0.5 h, 3 h, and 4 h relative to administration (observation time points were extended if necessary), with the measurement performed 5 times for each rabbit at each time point. The entire measurement process was completed by the same person.
• Reagents: normal saline (specification: 500 mL: 4.5 g), purchased from Jiangxi Kelun Pharmaceutical Co., Ltd.; • compound 1 and compound 2 (from Nanjing Jiqun Pharmaceutical Technology Co., Ltd.); • 1) a compound 1 solution at a concentration of 0.915% prepared using normal saline; • 2) a compound 2 solution at a concentration of 0.915% prepared using normal saline.
The miosis effects of the 0.915% compound 1 solution and the 0.915% compound 2 solution were determined using the method in Test Example 2, and the determination results are shown in Tables 4-1 and 4-2 below.

[1] = Stability tests on compound starting materials (HPLC related substances); assay type: physicochemical; settings: for (Z-A) impurity A isopilocarpine / (Z-B) impurity B pilocarpic acid / (Z-C) impurity C isopilocarpic acid / Maximum single impurity / Total impurity: starting material
Procedure: Samples: compound 1, compound 2 and pilocarpine hydrochloride starting material solid particles.
High-temperature test: 1 g of each of compound 1, compound 2 and pilocarpine hydrochloride starting materials were taken and placed in an open container inside a constant temperature device at 40° C.; samples were taken at time points of day 0 and day 5, and then tested according to the key stability examination items. The stability of the active pharmaceutical ingredient itself and the trend of changes in stability under the conditions of influencing factor tests were observed.
Strong light irradiation test: 1 g of each of compound 1, compound 2 and pilocarpine hydrochloride starting materials were taken and placed in an open container inside a light irradiation box, with the illumination set at 4500 lx±500 lx; samples were taken at time points of day 0 and day 5, and then tested according to the key stability examination items.
High-humidity test: 1 g of each of compound 1, compound 2 and pilocarpine hydrochloride starting materials was taken and placed in an open container inside a constant humidity closed container at 25° C. and with a relative humidity of 75%±5%; samples were taken at day 0 and day 5, and then tested according to the requirements of the key stability examination items.
According to the records in the European Pharmacopoeia (EP), the key related substances to be examined for pilocarpine include: impurity A isopilocarpine (Z-A), impurity B pilocarpic acid (Z-B), and impurity C isopilocarpic acid (Z-C). The samples taken at different time points from the above high-temperature test, strong light irradiation test and high-humidity test were separately tested using high-performance liquid chromatography to observe the trend of changes in stability under the conditions of the influencing factor tests.
The related substances were determined according to the high-performance liquid chromatography (General Chapter 0512, Chinese Pharmacopoeia, Volume IV, 2020 Edition).
Test sample solution: an appropriate amount of each test sample was precisely weighed, dissolved in water, and diluted to prepare a solution containing 1 mg of test sample per 1 mL.
Chromatographic conditions: octadecyl bonded silica gel was used as a filler [kromasil 100-5-C18 column (4.0 mm×[…]) or a chromatographic column with equivalent performance], 0.679 g/L tetrabutylammonium dihydrogen phosphate-methanol-acetonitrile (885:55:60) (adjusted to pH 7.7 with dilute aqueous ammonia) was used as mobile phase A, and acetonitrile-water (80:20) was used as mobile phase B; gradient elution was performed according to Table 6-1, with a column temperature of 30° C., a flow rate of 1.0 mL/min, a detection wavelength of 220 nm, and a sample injection volume of 20 μL.

[2] = Determination of salt-forming ratios of pilocarpine salt formulations (HPLC); assay type: physicochemical
Procedure: The determination of the salt-forming ratios of the pilocarpine salt formulations was performed using high-performance liquid chromatography with the following conditions: chromatographic column: C18 column; sample injection volume: 10 μL; mobile phase: K2HPO4 (adjusted to pH 6.50±0.1 with phosphoric acid)-methanol-acetonitrile (63:2:35); flow rate: 0.7 mL/min; column temperature: 30° C.; detection wavelength: 215 nm; […] determination was performed, and the salt-forming ratios were calculated according to the peak areas of free acid radicals and pilocarpine.
(§1) The samples were separately injected to determine the salt-forming ratios of different compound 1 formulations. Meanwhile, the salt-forming ratios of the compound 1 formulation solutions with different pH values under different conditions were determined using the above stability examination methods.
as §1, with “2” for “1”

- (Z-A) impurity A isopilocarpine ([1]; 40° C.-5 days): 0.338%
- (Z-B) impurity B pilocarpic acid ([1]; 40° C.-5 days): 0.072%
- (Z-C) impurity C isopilocarpic acid ([1]; 40° C.-5 days): 0%
- Maximum single impurity ([1]; 40° C.-5 days): 0%
- Total impurity ([1]; 40° C.-5 days): 0.353%
- (Z-A) impurity A isopilocarpine ([1]; Day 0): 0.307%
- (Z-B) impurity B pilocarpic acid ([1]; Day 0): 0%
- (Z-C) impurity C isopilocarpic acid ([1]; Day 0): 0%
- Maximum single impurity ([1]; Day 0): 0%
- Total impurity ([1]; Day 0): 0.307%
- (Z-A) impurity A isopilocarpine ([1]; Light-5 days (4500 lx)): 0.333%
- (Z-B) impurity B pilocarpic acid ([1]; Light-5 days (4500 lx)): 0.046%
- (Z-C) impurity C isopilocarpic acid ([1]; Light-5 days (4500 lx)): 0%
- Maximum single impurity ([1]; Light-5 days (4500 lx)): 0%
- Total impurity ([1]; Light-5 days (4500 lx)): 0.339%
- (Z-A) impurity A isopilocarpine ([1]; RH 75%-5 days, 25° C.): 0.311%
- (Z-B) impurity B pilocarpic acid ([1]; RH 75%-5 days, 25° C.): 0.116%
- (Z-C) impurity C isopilocarpic acid ([1]; RH 75%-5 days, 25° C.): 0%
- Maximum single impurity ([1]; RH 75%-5 days, 25° C.): 0%
- Total impurity ([1]; RH 75%-5 days, 25° C.): 0.427%
- salt-forming ratios of the formulations ([2]; different conditions): substantially stable
- Salt-forming ratio ([2]; formulation pH 4.3, 0 d): 1.25
- Salt-forming ratio ([2]; formulation pH 4.3, 40° C./5 d): 1.14
- Salt-forming ratio ([2]; formulation pH 4.3, 40° C./10 d): 1.15
- Salt-forming ratio ([2]; formulation pH 4.3, 60° C./5 d): 1.17
- Salt-forming ratio ([2]; formulation pH 4.3, 60° C./10 d): 1.23
- Salt-forming ratio ([2]; formulation pH 4.3, Light irradiation/5 d): 1.12
- Salt-forming ratio ([2]; formulation pH 4.3, Light irradiation/10 d): 1.13
- Salt-forming ratio ([2]; formulation pH 4.5, 0 d): 1.00
- Salt-forming ratio ([2]; formulation pH 4.5, 40° C./5 d): 1.02
- Salt-forming ratio ([2]; formulation pH 4.5, 40° C./10 d): 1.01
- Salt-forming ratio ([2]; formulation pH 4.5, 60° C./5 d): 1.02
- Salt-forming ratio ([2]; formulation pH 4.5, 60° C./10 d): 1.01
- Salt-forming ratio ([2]; formulation pH 4.5, Light irradiation/5 d): 1.01
- Salt-forming ratio ([2]; formulation pH 4.5, Light irradiation/10 d): 1.01
- Salt-forming ratio ([2]; formulation pH 4.8, 0 d): 1.00
- Salt-forming ratio ([2]; formulation pH 4.8, 40° C./5 d): 1.01
- Salt-forming ratio ([2]; formulation pH 4.8, 40° C./10 d): 1.00
- Salt-forming ratio ([2]; formulation pH 4.8, 60° C./5 d): 0.98
- Salt-forming ratio ([2]; formulation pH 4.8, 60° C./10 d): 0.96
- Salt-forming ratio ([2]; formulation pH 4.8, Light irradiation/5 d): 1.01
- Salt-forming ratio ([2]; formulation pH 4.8, Light irradiation/10 d): 1.01
- Salt-forming ratio ([2]; formulation pH 5.0, 0 d): 1.00
- Salt-forming ratio ([2]; formulation pH 5.0, 40° C./5 d): 1.00
- Salt-forming ratio ([2]; formulation pH 5.0, 40° C./10 d): 0.99
- Salt-forming ratio ([2]; formulation pH 5.0, 60° C./5 d): 0.95
- Salt-forming ratio ([2]; formulation pH 5.0, 60° C./10 d): 0.92
- Salt-forming ratio ([2]; formulation pH 5.0, Light irradiation/5 d): 1.00
- Salt-forming ratio ([2]; formulation pH 5.0, Light irradiation/10 d): 1.00
- Salt-forming ratio ([2]; formulation pH 5.5, 0 d): 0.99
- Salt-forming ratio ([2]; formulation pH 5.5, 40° C./5 d): 0.98
- Salt-forming ratio ([2]; formulation pH 5.5, 40° C./10 d): 0.97
- Salt-forming ratio ([2]; formulation pH 5.5, 60° C./5 d): 0.90
- Salt-forming ratio ([2]; formulation pH 5.5, 60° C./10 d): 0.85
- Salt-forming ratio ([2]; formulation pH 5.5, Light irradiation/5 d): 1.00
- Salt-forming ratio ([2]; formulation pH 5.5, Light irradiation/10 d): 1.00
Compound: CC[C@@H]1C(=O)OC[C@@H]1Cc1cncn1C [Compound 2]
- miosis effect compared to pilocarpine hydrochloride (rabbit pupil): comparable to the effect of pilocarpine hydrochloride
- impurity increasing rate compared to pilocarpine hydrochloride starting material ([1]; 40° C. and high light irradiation): comparable to those of the pilocarpine hydrochloride starting material
- impurity increasing rate compared to pilocarpine hydrochloride starting material ([1]; 5 days, high humidity (RH 75%)): significantly slower than those of the pilocarpine hydrochloride
